Assay results from patent US20240382730A1, “FLEXIBLE MICRONEEDLE ARRAY PATCH FOR CHRONIC WOUND OXYGENATION AND BIOFILM ERADICATION” (Purdue Research Foundation, priority 2021, published 2024).

Tested on: S. aureus mature biofilm
Assay: Colony biofilm model, mature biofilm
Format: cell-based, Staphylococcus aureus
Details: FIG. 9a; powder amount estimated equal to that in the CPO-loaded MN sample, 24 h
Procedure: Biofilm Antibacterial Studies. Antibiofilm activity of MNs loaded with CPO was evaluated by the colony biofilm model. Overnight cultures of S. aureus and P. aeruginosa were diluted to 2×10^5 CFU mL−1 with TSB. Next, 50 μL of the diluted bacterial suspension was inoculated onto sterile 10 mm nitrocellulose disks placed on the surface of tryptic soy agar (TSA) plates. To allow biofilm development on the nitrocellulose membrane, the plates were incubated at 37° C. for 72 h. The developed biofilm was then nourished by aseptically transferring to new TSA plates every day for 4 days.31,38 After maturation of the biofilms, 12 mm disks of MNs loaded with CPO and control samples including PET films, CPO powder, and 12 mm disks of MNs without CPO were placed onto the biofilm using sterile forceps. The quantity of CPO powder in the control was estimated to be the amount of CPO powder present in the sample of MNs loaded with CPO. For all experiments, biofilms without any treatments were used as the negative control. The plates were further incubated at 37° C. for 24 h immediately after each treatment. […] The plates were further incubated at 37° C. for 24 h and viable CFU mL−1 were calculated.

[Ca+2].[O-][O-] [CPO, calcium peroxide]
effect on number of colonies in biofilm: did not affect the number of colonies
